Measured values: patent US12577213B2 (NINGBO COMBIREG PHARMACEUTICAL TECHNOLOGY CO., LTD., priority 2020, dated 2026)
Like-named read-outs stand apart in the source and are kept apart here.

Tests used:
[1] = system: A549 (non-small cell lung cancer); assay: NCI method SRB growth inhibition, A549; assay type: cell-based; conditions: Homo sapiens; A549, treated 48 hours, SRB stain
How it was run: (§1)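 Cells were exposed to compound for 48 h alongside a time-zero plate fixed at dosing and a 48 h vehicle control, then stained with sulforhodamine B and read at 515 nm. GI50 is the concentration giving 50% growth relative to time-zero and vehicle ODs; TGI where test OD equals time-zero OD; LC50 where 50% of starting cells are killed.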

[2] = Liver microsomes stability; assay type: in vitro ADME, human; conditions: for half-life at 1 μM: human, human liver microsomes
How it was run: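 Compound at 1 μM final incubated with 1 mg/mL human liver microsomes and 1 mM NADPH (no-NADPH control), sampled at 0, 5, 15, 30, 60 min. Remaining parent quantified by LC-MS/MS; T1/2 = 0.693/k.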

K562 (leukemia) = assay: NCI method SRB growth inhibition, K562; assay type: cell-based; conditions: Homo sapiens; K562, treated 48 hours, SRB stain
How it was run: as §1

OVCAR-3 (ovarian cancer) = assay: NCI method SRB growth inhibition, OVCAR-3; assay type: cell-based; conditions: Homo sapiens; OVCAR-3, treated 48 hours, SRB stain
How it was run: as §1

PC-3 (prostate cancer) = assay: NCI method SRB growth inhibition, PC-3; assay type: cell-based; conditions: Homo sapiens; PC-3, treated 48 hours, SRB stain
How it was run: as §1

[3] = system: SF295 (central nervous system tumor); assay: NCI method SRB growth inhibition, SF295; assay type: cell-based; conditions: Homo sapiens, SF-295; SF295, treated 48 hours, SRB stain
How it was run: as §1

[4] = system: breast cancer cell line SUM159 sphere; assay: Breast cancer stem cell sphere formation; assay type: cell-based, human; conditions: 50 nM; for formation of the sphere after cell passage: 5 days of drug treatment, then passage
Experimental: The inhibitory effects of embodiment compounds 5, 7, 11, 13, 14, 20 and 21 on the formation of breast cancer cell line SUM159 sphere are described as follows.
The breast cancer cell line SUM159 sphere was cultured with serum-free medium in an ultra-low adsorption plate, the basal medium was DMEM/F12 (without phenol red), and B27 (without vitamin A) (1×), EGF (20 ng/ml), bFGF (20 ng/ml) and insulin (insulin, 5 ug/ml) were added.
An equal number (4000) of SUM159 cells per well were inoculated into an ultra-low adsorption 24 plate, and the sphere was photographed after 5 days of culture, replaced with fresh medium, and treated with drugs at certain concentrations, respectively. Compounds 5, 7, 11, 13, 14, 20 and 21 were evaluated in this experiment at 50 nM, respectively. The effect of the drug on the sphere phenotype could be observed after about 3 days of drug treatment. The sphere was photographed again after 5 days of drug treatment, and then the sphere was passaged. The sphere was photographed again after 7 days of passage.
The differences of the photographs taken in three different stages were counted and compared, and the killing effect of the tested compounds on SUM159 sphere was evaluated through the differences of sphere formation after passage, thus reflecting the inhibitory effects of different compounds on breast cancer stem cells.

LOX-IMVI (melanoma) = assay: NCI method SRB growth inhibition, LOX-IMVI; assay type: cell-based; conditions: Homo sapiens, treated 48 hours, SRB stain
How it was run: as §1

[5] = 1 μM compound, 1 mg/mL human liver microsomes, 1 mM NADPH
[6] = 1 μM compound, 1 mg/mL human liver microsomes, 1 mM NADPH, read-out: T½ of HLM
[7] = as repeated in Table 4, read-out: T½ of HLM (in vitro)

| SMILES | GI50 [1] [nM] | microsomal CLint at 1 μM [2, 5] [µL/min/mg] | half-life at 1 μM [2, 6] [h] | half-life at 1 μM [2, 7] [h] | GI50 (K562 (leukemia)) [nM] | GI50 (OVCAR-3 (ovarian cancer)) [nM] | GI50 (PC-3 (prostate cancer)) [nM] | GI50 [3] [nM] | killing effect on SUM159 sphere [4] | formation of the sphere after cell passage [4] | GI50 (LOX-IMVI (melanoma)) [nM] |
| --- | --- | --- | --- | --- | --- | --- | --- | --- | --- | --- | --- |
| [2H]C([2H])([2H])Oc1cc(C(=O)Nc2cc3c(cc2Oc2cc(C)cc(C)c2)C(=O)N[C@@H](CC(=O)N(C([2H])([2H])C([2H])([2H])[2H])C([2H])([2H])C([2H])([2H])[2H])C(=O)N3)c(Br)c(OC([2H])([2H])[2H])c1OC([2H])([2H])[2H] [Compound 5, (S)-2-bromo-N-[3-[2-[bis(pentadeuteroethyl)amino]-2-oxoethyl]-7-(3,5-dimethylphenoxy)-2,5-dioxo-2,3,4,5-tetrahydro-1H-benzo[e][1,4]diazepin-8-yl]-3,4,5-tris(trideuteromethoxy)benzamide] | < 5 | 3.2 | 3.62 | 3.62 | < 5 | < 5 | < 5 | 17.4 | strong killing effect | significantly reduced | < 5 |
| [2H]C([2H])([2H])Oc1cc(C(=O)Nc2cc3c(cc2Oc2cc(C)cc(C)c2)C(=O)N(C)[C@@H](CC(=O)N(C)C)C(=O)N3)c(Br)c(OC([2H])([2H])[2H])c1OC([2H])([2H])[2H] [Compound 16, (S)-2-bromo-N-[3-[2-(dimethylamino)-2-oxoethyl]-7-(3,5-dimethylphenoxy)-4-methyl-2,5-dioxo-2,3,4,5-tetrahydro-1H-benzo[e][1,4]diazepin-8-yl]-3,4,5-tris(trideuteromethoxy)benzamide] | < 5 | 11.6 | 0.948 | 0.997 | < 5 | < 5 | < 5 | 7.6 | – | – | < 5 |
| [2H]C([2H])([2H])Oc1cc(C(=O)Nc2cc3c(cc2Oc2cc(C)cc(C)c2)C(=O)N[C@@H](CC(=O)N(C)C)C(=O)N3)c(Br)c(OC([2H])([2H])[2H])c1OC([2H])([2H])[2H] [Compound 20, (S)-2-bromo-N-[3-[2-(dimethylamino)-2-oxoethyl]-7-(3,5-dimethylphenoxy)-2,5-dioxo-2,3,4,5-tetrahydro-1H-benzo[e][1,4]diazepin-8-yl]-3,4,5-tris(trideuteromethoxy)benzamide] | < 5 | 2.1 | 5.5 | 5.5 | < 5 | < 5 | < 5 | 19.9 | strong killing effect | significantly reduced | < 5 |
